Our source for the affective-motivational behaviors and reflex behaviors values is patent US20210220489A1, “AMYGDALAR NEURAL ENSEMBLE THAT ENCODES THE UNPL[…] PAIN” (The Board of Trustees of the Leland Stanford Junior …, priority 2020, published 2021).

This test has as its system control neuropathic mice. As to the kind of experiment: Pain behaviors in control neuropathic mice not expressing hM4-mCherry in the BLA. The test is classed as in vivo. The settings on record: absence of hM4 expression, CNO 10 mg/kg, morphine as positive control. An excerpt:
To induce a chronic pain state, we used a modified version of the Spared Nerve Injury (SNI) model of neuropathic pain, as previously described (70). This model entails surgical section of two of the sciatic nerve branches (common peroneal and tibial branches) while sparing the third (sural branch). […] To perform this peripheral nerve injury procedure, anesthesia was induced and maintained throughout surgery with isoflurane (4% induction, 1.5% maintenance in oxygen). The left hind leg was shaved and wiped clean with alcohol and betadine. We made a 1-cm incision in the skin of the mid-dorsal thigh, approximately where the sciatic nerve trifurcates. The biceps femoris and semimembranosus muscles were gently separated from one another with blunt scissors, thereby creating a <1-cm opening between the muscle groups to expose the common peroneal, tibial, and sural branches of the sciatic nerve. Next, −2 mm of both the common peroneal and tibial nerves were transected and removed, without suturing and with care not to distend the sural nerve. The leg muscles are left uncultured and the skin was closed with tissue adhesive (3M Vetbond), followed by a Betadine application. During recovery from surgery, mice were placed under a heat lamp until awake and achieved normal balanced movement. Mice were then returned to their home cage and closely monitored over the following three days for well-being.
To evaluate mechanical reflexive sensitivity, we used a logarithmically increasing set of 8 von Frey filaments (Stoelting), ranging in gram force from 0.07- to 6.0-g (93). These filaments were applied perpendicular to the plantar hindpaw with sufficient force to cause a slight bending of the filament. […] Using the Up-Down statistical method, the 50% withdrawal mechanical threshold scores were calculated for each mouse and then averaged across the experimental groups. The response frequency was calculated as the number of positive responses out of 10 stimulations, delivered at 30-s intervals.
To evaluate affective-motivational responses evoked by thermal stimulation (81), we applied either a single, unilateral 50-μL drop of water (5, 30, or 55° C.) or acetone (evaporative cooling) to the left hindpaw, and the duration of attending behavior was collected for up to 60 s after the stimulation. […] The track was subdivided into 25 temperature zones (4.8-cm D per zone), and we assessed the temperature at the center of each zone by a K-probe thermocouple. […] A video camera placed above the track recorded the position of the mouse within the temperature zones, and videos were later analyzed using a video-tracking software (Etho-vision, Noldus) for duration of zone occupancy, zone visits, distance, velocity, and acceleration.

As to `CN1CC[C@]23c4c5ccc(O)c4O[C@H]2[C@@H](O)C=C[C@H]3[C@H]1C5` [Morphine], the affective-motivational behaviors entry (acetone drop) is reported as “reduced”. In addition, the reflex behaviors entry (von Frey filaments) is listed as “reduced”.
